Assay results from patent US20050054555A1, “Kahalalide compounds for use in cancer therapy” (priority 2001, published 2005).
Entries after “also recorded” stand apart in the source; their conditions may differ.

Legend:
[1] = tested on: patients with solid tumours; test: Phase I trial KHF-A-002-01: safety of Kahalalide F weekly infusion over 1 hour; format: in vivo, human
From the text: (§1) The rate of subject entry and escalation to the next dose level will depend upon assessment of the safety profile of patients entered at each dose level. Toxicity will be evaluated and graded according to the Common Toxicity Criteria, version 2.0.
In order to minimize the number of patients treated at the subtoxic dose levels, a single patient will be treated per dose level with 100% dose escalation in the absence of any toxicity G2 (excluding alopecia) during their first course of treatment. After the occurrence of grade 2 toxicity (excluding asthenia, alopecia, nausea and vomiting or anemia), the dose level is expanded to three patients with only 50% incremental increase in dosage in advancing to the next dose level. For the occurrence of grade 3 non-hematological toxic effects the dose level should be expanded up to six patients. This second cohort of 3 patients will be included consecutively. If the first or second patient develops dose limiting toxicities no further patients will be treated at this dose level, it will be defined as MTD and the accrual will begin at a lower dose level. If only one DLT occurs at this dose level another 3 patients will be included at the next dose level with an increase of 25% only.
The maximum tolerated dose (MTD) is defined as the dose at which at least 2 out of 3 or more than 3 patients experience DLT. However, it is possible that additional patients may experience DLT due to the timing of patient enrollment into that dose level.
The toxicity will be evaluated and clasified in grades according to the Common Toxicity Criteria (CTC) version NCI 2.0, March 1998.
Dose Limiting Toxicities (DLTs) are Defined as Follows: […]
ANC <500/mm3 for more than 5 days.
ANC <500/mm3 with a temperature of 38'5 or more.
Any other non-hematological grade 3-4 toxicity excluding: nausea, emesis without prophilaxis
G3 transaminases increase >14 days
Hypersensibility reactions

solid tumours = tested on: solid tumours
Experimental: KHF-A-002-01. Phase I Clinical and Pharmacokinetic study to determine the safety of Kahalalide F administered as a weekly infusion over 1 hour in patients with solid tumours.
This trial was addressed to any solid tumours and was designed as a classical escalation. […] One cycle in this trial means a week, so 4 cycles mean 1 month of treatment.

[2] = tested on: human patients afflicted with cancer; test: Clinical programme (both phase I trials): toxicity summary; format: in vivo
Experimental: Clinical trials were carried out based on the following protocols:
as §1

[3] = tested on: advanced or metastatic androgen refractory prostate cancer
Experimental: OBJECTIVE: In the present phase I clinical and pharmacokinetic (PK) study the toxicity profiles PK and anti-tumour activity of KF are investigated. METHODS: KF is administered as an intravenous infusion over one hour, during five consecutive days every three weeks in patients with advanced or metastatic androgen refractory prostate cancer. On the basis of the MTD values defined in mice, a starting dose of 20 μg/m2/day was selected, which is equivalent to a total dose of 100 μg/m2. PK of KF were determined in plasma during the first course. Bioanalysis of KF was performed by LC-MS/MS. LDH, AF and especially PSA levels of each patient were also evaluated during the study to determine the activity of KF. […] One patient per level was entered at 20, 40, 80 and 160 μg/m2/day. […] The first patient of this study was re-entered at this dose level.

[4] = weekly 1 h infusion, all dose levels
[5] = weekly 1 h infusion, all dose levels, 19 patients evaluated
[6] = weekly 1 h infusion, all dose levels, head prints 20 patients
[7] = 400 mcg/m2 weekly, 6 months (24 cycles)

C/C=C1\NC(=O)[C@H](Cc2ccccc2)NC(=O)[C@@H](C(C)C)NC(=O)[C@@H](C(C)CC)NC(=O)[C@H](NC(=O)C(NC(=O)[C@H](CCCN)NC(=O)[C@H]2CCCN2C(=O)[C@H](NC(=O)[C@@H](NC(=O)[C@@H](NC(=O)[C@H](NC(=O)CCCC(C)C)C(C)C)C(C)O)C(C)C)C(C)C)C(C)CC)C(C)OC(=O)[C@H](C(C)C)NC1=O (single isomer, unassigned) [kahalalide F]
incidence of grade 4 hypertransaminasemia ([1]; 800-1200 mcg/m2/wk): all the patients had grade 4 hypertransaminasemia
time of onset of grade 4 hypertransaminasemia after the infusion ([1]; 1200 mcg/m2 weekly): 5 h
Worst toxicity ([1]; Level VI, dose 1000 weekly, 3 patients): Hypersensitivity; also recorded: hypertrans
Bronchoconstriction observed ([1]; highest dose level (1000 and 1200)): two patients
reversibility of hypertransaminasemia overall ([1]; patients remained asymptomatic): completely reversible
reversibility of hypertransaminasemia ([1]; patients treated at 1000 and 1200): not reversible by day 8
dose at which the DLT (grade 4 hypertransaminasemia non reversible by day 21) was identified ([1]; weekly 1 h infusion): 1200 mcg/m2
Nonhematologic toxicity, laboratory abnormalities: Alk. phosphatase, Grade 1 [1, 4]: 27.8
Nonhematologic toxicity, laboratory abnormalities: Alk. phosphatase, Grade 2 [1, 4]: 11.1
Nonhematologic toxicity, laboratory abnormalities: Alk. phosphatase, Grade 3 [1, 4]: 0
Nonhematologic toxicity, laboratory abnormalities: Alk. phosphatase, Grade 4 [1, 4]: 0
Nonhematologic toxicity, laboratory abnormalities: Bilirubin, Grade 1 [1, 4]: 5.6
Nonhematologic toxicity, laboratory abnormalities: Bilirubin, Grade 2 [1, 4]: 0
Nonhematologic toxicity, laboratory abnormalities: Bilirubin, Grade 3 [1, 4]: 0
Nonhematologic toxicity, laboratory abnormalities: Bilirubin, Grade 4 [1, 4]: 0
Nonhematologic toxicity, laboratory abnormalities: CPK, Grade 1 [1, 4]: 36.8
Nonhematologic toxicity, laboratory abnormalities: CPK, Grade 2 [1, 4]: 0
Nonhematologic toxicity, laboratory abnormalities: CPK, Grade 3 [1, 4]: 0
Nonhematologic toxicity, laboratory abnormalities: CPK, Grade 4 [1, 4]: 0
Nonhematologic toxicity, laboratory abnormalities: Ca++ hyper, Grade 1 [1, 4]: 84.2
Nonhematologic toxicity, laboratory abnormalities: Ca++ hyper, Grade 2 [1, 4]: 0
Nonhematologic toxicity, laboratory abnormalities: Ca++ hyper, Grade 3 [1, 4]: 0
Nonhematologic toxicity, laboratory abnormalities: Ca++ hyper, Grade 4 [1, 4]: 0
Nonhematologic toxicity, laboratory abnormalities: Ca++ hypo, Grade 1 [1, 4]: 21.1
Nonhematologic toxicity, laboratory abnormalities: Ca++ hypo, Grade 2 [1, 4]: 0
Nonhematologic toxicity, laboratory abnormalities: Ca++ hypo, Grade 3 [1, 4]: 0
Nonhematologic toxicity, laboratory abnormalities: Ca++ hypo, Grade 4 [1, 4]: 0
Nonhematologic toxicity, laboratory abnormalities: Creatinine, Grade 1 [1, 4]: 31.6
Nonhematologic toxicity, laboratory abnormalities: Creatinine, Grade 2 [1, 4]: 5.3
Nonhematologic toxicity, laboratory abnormalities: Creatinine, Grade 3 [1, 4]: 0
Nonhematologic toxicity, laboratory abnormalities: Creatinine, Grade 4 [1, 4]: 0
Nonhematologic toxicity, laboratory abnormalities: GGT, Grade 1 [1, 4]: 16.7
Nonhematologic toxicity, laboratory abnormalities: GGT, Grade 2 [1, 4]: 11.1
Nonhematologic toxicity, laboratory abnormalities: GGT, Grade 3 [1, 4]: 5.6
Nonhematologic toxicity, laboratory abnormalities: GGT, Grade 4 [1, 4]: 11.1
Nonhematologic toxicity, laboratory abnormalities: GOT, Grade 1 [1, 4]: 38.9
Nonhematologic toxicity, laboratory abnormalities: GOT, Grade 2 [1, 4]: 0
Nonhematologic toxicity, laboratory abnormalities: GOT, Grade 3 [1, 4]: 0
Nonhematologic toxicity, laboratory abnormalities: GOT, Grade 4 [1, 4]: 16.7
Nonhematologic toxicity, laboratory abnormalities: GPT, Grade 1 [1, 4]: 22.2
Nonhematologic toxicity, laboratory abnormalities: GPT, Grade 2 [1, 4]: 5.6
Nonhematologic toxicity, laboratory abnormalities: GPT, Grade 3 [1, 4]: 0
Nonhematologic toxicity, laboratory abnormalities: GPT, Grade 4 [1, 4]: 16.7
Nonhematologic toxicity, laboratory abnormalities: K+ hypo, Grade 1 [1, 4]: 5.3
Nonhematologic toxicity, laboratory abnormalities: K+ hypo, Grade 2 [1, 4]: 0
Nonhematologic toxicity, laboratory abnormalities: K+ hypo, Grade 3 [1, 4]: 0
Nonhematologic toxicity, laboratory abnormalities: K+ hypo, Grade 4 [1, 4]: 0
Nonhematologic toxicity, laboratory abnormalities: Na+ hypo, Grade 1 [1, 4]: 21.1
Nonhematologic toxicity, laboratory abnormalities: Na+ hypo, Grade 2 [1, 4]: 0
Nonhematologic toxicity, laboratory abnormalities: Na+ hypo, Grade 3 [1, 4]: 0
Nonhematologic toxicity, laboratory abnormalities: Na+ hypo, Grade 4 [1, 4]: 5.3
Hematologic toxicity (worst per patient): Hemoglobin, Grade 1 [1, 5]: 57.9
Hematologic toxicity (worst per patient): Hemoglobin, Grade 2 [1, 5]: 21.1
Hematologic toxicity (worst per patient): Hemoglobin, Grade 3 [1, 5]: 0
Hematologic toxicity (worst per patient): Hemoglobin, Grade 4 [1, 5]: 0
Hematologic toxicity (worst per patient): Leukocytes, Grade 1 [1, 5]: 15.8
Hematologic toxicity (worst per patient): Leukocytes, Grade 2 [1, 5]: 5.3
Hematologic toxicity (worst per patient): Leukocytes, Grade 3 [1, 5]: 0
Hematologic toxicity (worst per patient): Leukocytes, Grade 4 [1, 5]: 0
Hematologic toxicity (worst per patient): Neutrophils, Grade 1 [1, 5]: 5.3
Hematologic toxicity (worst per patient): Neutrophils, Grade 2 [1, 5]: 5.3
Hematologic toxicity (worst per patient): Neutrophils, Grade 3 [1, 5]: 0
Hematologic toxicity (worst per patient): Neutrophils, Grade 4 [1, 5]: 0
Hematologic toxicity (worst per patient): Platelets, Grade 1 [1, 5]: 10.5
Hematologic toxicity (worst per patient): Platelets, Grade 2 [1, 5]: 0
Hematologic toxicity (worst per patient): Platelets, Grade 3 [1, 5]: 0
Hematologic toxicity (worst per patient): Platelets, Grade 4 [1, 5]: 0
Most frequently reported non-hematologic toxicities: Diarrhea, Grade 1 [1, 6]: 0
Most frequently reported non-hematologic toxicities: Diarrhea, Grade 2 [1, 6]: 5.3
Most frequently reported non-hematologic toxicities: Diarrhea, Grade 3 [1, 6]: 5.3
Most frequently reported non-hematologic toxicities: Diarrhea, Grade 4 [1, 6]: 0
Most frequently reported non-hematologic toxicities: Fatigue, Grade 1 [1, 6]: 21.1
Most frequently reported non-hematologic toxicities: Fatigue, Grade 2 [1, 6]: 21.1
Most frequently reported non-hematologic toxicities: Fatigue, Grade 3 [1, 6]: 0
Most frequently reported non-hematologic toxicities: Fatigue, Grade 4 [1, 6]: 0
Most frequently reported non-hematologic toxicities: Hypersensitivity, Grade 1 [1, 6]: 15.8
Most frequently reported non-hematologic toxicities: Hypersensitivity, Grade 2 [1, 6]: 5.3
Most frequently reported non-hematologic toxicities: Hypersensitivity, Grade 3 [1, 6]: 5.3
Most frequently reported non-hematologic toxicities: Hypersensitivity, Grade 4 [1, 6]: 0
Most frequently reported non-hematologic toxicities: Hypertension, Grade 1 [1, 6]: 0
Most frequently reported non-hematologic toxicities: Hypertension, Grade 2 [1, 6]: 0
Most frequently reported non-hematologic toxicities: Hypertension, Grade 3 [1, 6]: 0
Most frequently reported non-hematologic toxicities: Hypertension, Grade 4 [1, 6]: 0
Most frequently reported non-hematologic toxicities: Inject-site reaction, Grade 1 [1, 6]: 0
Most frequently reported non-hematologic toxicities: Inject-site reaction, Grade 2 [1, 6]: 5.3
Most frequently reported non-hematologic toxicities: Inject-site reaction, Grade 3 [1, 6]: 0
Most frequently reported non-hematologic toxicities: Inject-site reaction, Grade 4 [1, 6]: 0
Most frequently reported non-hematologic toxicities: Nausea, Grade 1 [1, 6]: 31.6
Most frequently reported non-hematologic toxicities: Nausea, Grade 2 [1, 6]: 10.5
Most frequently reported non-hematologic toxicities: Nausea, Grade 3 [1, 6]: 0
Most frequently reported non-hematologic toxicities: Nausea, Grade 4 [1, 6]: 0
Most frequently reported non-hematologic toxicities: Periph-sens neuro, Grade 1 [1, 6]: 36.8
Most frequently reported non-hematologic toxicities: Periph-sens neuro, Grade 2 [1, 6]: 0
Most frequently reported non-hematologic toxicities: Periph-sens neuro, Grade 3 [1, 6]: 5.3
Most frequently reported non-hematologic toxicities: Periph-sens neuro, Grade 4 [1, 6]: 0
Most frequently reported non-hematologic toxicities: Vomiting, Grade 1 [1, 6]: 10.5
Most frequently reported non-hematologic toxicities: Vomiting, Grade 2 [1, 6]: 5.3
Most frequently reported non-hematologic toxicities: Vomiting, Grade 3 [1, 6]: 0
Most frequently reported non-hematologic toxicities: Vomiting, Grade 4 [1, 6]: 0
dose limiting toxicity ([1]; weekly schedule): grade 4 hypertransaminasemia
time of hypertransaminasemia peak/appearance after the infusion ([1]; weekly schedule): 4 to 5 h
overall response in a patient with hepatocellular carcinoma (solid tumours; [7]): stable disease
response in a patient with hepatocellular carcinoma (target lesion) (solid tumours; [7]): Partial response in one target lesion
efficacy in a patient with epidermoid carcinoma of the cavum (solid tumours; 400 mcg/m2 weekly, ORL exploration): Subjective improvement and non evaluable response
efficacy in a patient with non small cell lung cancer (solid tumours; 530 mcg/m2 weekly, 4 months (16 infusions)): without evidence of progression disease
Efficacy (tumour type with hints of efficacy) (solid tumours; Level III, dose 530 weekly): NSCLC
efficacy in one patient with peritoneal mesothelioma (solid tumours; weekly schedule): clinical benefit with reduction of ascytes volume
Grade 1-2 neutropenia, share of patients [2]: 10%
Grade 1 hypokalyemia, share of patients [2]: 20%
grade 1 hypophosphatemia, share of patients [2]: 10%
grade 1 renal toxicity, share of patients [2]: about 35%
grade 2 hypophosphatemia, share of patients [2]: 15%
grade 3-4 hematologic toxicities [2]: No grade 3-4 toxicities were reported
decrease in PSA level ([3]; one patient, associated with pain relief, preliminary report): > 50%
response evaluated by PSA, one patient ([3]; patient received 8 cycles, clinical improvement): partial response
PSA change in two additional patients ([3]; preliminary report): minor PSA reductions
